Experimental findings from patent publication US20230416199A1, “INHIBITORS OF AMINO ACID TRANSPORT” (ICAHN SCHOOL OF MEDICINE AT MOUNT SINAI, priority 2020, published 2023) are described below.

The target of one assay is T1, hASCT1 (Homo sapiens, UniProt P43007).
T1 construct: expressed in transfected cells; host or cells: HEK293 (ATCC CRL-11268), transient transfection
T1 sequence (P43007 1-532): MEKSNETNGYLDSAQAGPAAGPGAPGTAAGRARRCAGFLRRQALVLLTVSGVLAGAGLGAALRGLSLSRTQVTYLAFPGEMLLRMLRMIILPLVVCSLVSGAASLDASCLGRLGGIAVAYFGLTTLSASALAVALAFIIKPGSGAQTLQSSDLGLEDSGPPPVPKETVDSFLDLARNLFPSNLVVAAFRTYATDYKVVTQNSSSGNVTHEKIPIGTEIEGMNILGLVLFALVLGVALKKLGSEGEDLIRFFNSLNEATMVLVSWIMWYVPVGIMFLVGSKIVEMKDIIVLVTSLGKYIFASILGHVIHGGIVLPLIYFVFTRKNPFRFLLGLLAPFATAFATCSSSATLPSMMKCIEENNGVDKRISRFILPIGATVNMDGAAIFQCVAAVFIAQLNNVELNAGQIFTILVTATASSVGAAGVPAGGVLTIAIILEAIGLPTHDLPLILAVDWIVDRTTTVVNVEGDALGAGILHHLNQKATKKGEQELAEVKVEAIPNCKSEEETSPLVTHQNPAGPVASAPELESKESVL
As to the kind of experiment: Electrophysiology (whole-cell current recording) of transfected HEK293 cells, hASCT1. Type of assay: cell-based. Particulars: apparent Ki in the absence of substrate, HEK293, mean ± SD; read-out: Ki hASCT1.

A further assay has as its target T2, EAAC1 (UniProt P51907).
T2 construct: Ki EAAC1; other: apparent Ki, HEK293, internal solution 10 mM glutamate, mean ± SD
T2 sequence (P51907 1-523): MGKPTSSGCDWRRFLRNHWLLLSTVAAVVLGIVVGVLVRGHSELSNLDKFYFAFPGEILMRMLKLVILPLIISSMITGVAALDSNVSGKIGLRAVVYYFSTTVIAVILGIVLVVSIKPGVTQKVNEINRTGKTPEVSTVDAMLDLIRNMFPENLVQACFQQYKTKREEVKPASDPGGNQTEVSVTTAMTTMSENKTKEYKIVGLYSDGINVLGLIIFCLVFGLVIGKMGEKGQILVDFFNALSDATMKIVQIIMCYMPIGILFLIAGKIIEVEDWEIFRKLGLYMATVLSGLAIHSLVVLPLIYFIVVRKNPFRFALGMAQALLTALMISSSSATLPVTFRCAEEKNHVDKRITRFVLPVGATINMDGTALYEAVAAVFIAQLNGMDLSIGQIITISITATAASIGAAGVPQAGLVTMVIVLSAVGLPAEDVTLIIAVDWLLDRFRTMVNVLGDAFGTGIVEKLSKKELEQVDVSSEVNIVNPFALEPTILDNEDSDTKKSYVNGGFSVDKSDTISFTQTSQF
The assay is described as follows: Electrophysiology specificity experiment in transfected HEK293 cells, EAAC1. In kind it is cell-based. Particulars: apparent Ki, HEK293, internal solution 10 mM glutamate, mean ± SD. The procedure:
Cells were maintained at 37° C. in a fully humidified atmosphere containing 5% CO2. rASCT2, hASCT2, hASCT1, EAAT1, EAAT2, EAAC1, EAAT5 and YFP complementary DNAs were each used to transiently transfect HEK293 using POLYPLUS Jet-prime transfection reagent. Cells were analyzed using electrophysiological techniques 24-40 hours after transfection.
Stock solutions of inhibitor was prepared in dimethyl sulfoxide (DMSO) up to 100 mM. Dilutions to working concentrations were made using external buffer. […] For rASCT2, hASCT2 and hASCT1, external buffer contained 140 mM NaCl, 2 mM MgCl2, 2 mM CaCl2), and 10 mM HEPES, pH 7.40 while internal pipette solution comprised of 130 mM NaSCN, 2 mM MgCl2, 10 mM EGTA, 10 mM HEPES and 10 mM alanine, pH 7.40. For specificity experiments with EAAT1, EAAT2, EAAC1 and EAAT5, internal solution contained 10 mM glutamate instead of alanine. Compounds were applied to HEK293 cells expressing DNA of interest suspended from a current recording electrode in whole cell configuration through a rapid solution exchange device. Cells are immersed in external buffer bath used to dissolve the inhibitors. The open pipette resistance was between 3 and 6 MΩ. Series resistance was not compensated in these experiments due to relatively small currents. Currents traces were recorded using an Adams and List EPC7 amplifier and digitized using a Molecular Devices Digidata A/D converter.
Linear and nonlinear curve fitting of the experimental data were analyzed using MicroCal Origin software. Nonlinear dose-response relationships were fitted with a Michaelis-Menten-like equation to obtain apparent Ki values in the absence of substrate (see TABLE 2 for Ki values). […] At least four experiments were performed with at least three different cells. Error bars in all graphs, e.g., in FIG. 1B and FIG. 1C and tables (Ki values) represent mean±SD.

Turning to `O=C(O[C@@H]1CN[C@H](C(=O)O)C1)c1ccc(-c2ccccc2)cc1` [SN 05], the Ki came to 2.77 ± 0.1 µM on hASCT1 and 7.23 ± 1.4 µM at EAAC1.

As for `O=C(O[C@@H]1CN[C@H](C(=O)O)C1)c1ccc(-c2ccc(F)cc2)cc1` [SN 08], the Ki at hASCT1 stood at 0.9 ± 0.1 µM; at EAAC1, 0.69 ± 0.1 µM.

As for `O=C(O[C@@H]1CN[C@H](C(=O)O)C1)c1ccc(-c2ccc(C(F)(F)F)cc2)cc1` [SN 09], the Ki on hASCT1 was determined as 0.44 ± 0.1 µM; on EAAC1, 1.25 ± 0.2 µM.

In the case of `Cc1ccccc1-c1ccc(C(=O)O[C@@H]2CN[C@H](C(=O)O)C2)cc1` [SN 10], the Ki on hASCT1 worked out at 1.33 ± 0.3 µM; at EAAC1, 1.99 ± 0.4 µM.

Turning to `Cc1ccccc1-c1ccc(C(=O)O[C@@H]2CN[C@H](C(=O)O)C2)cc1C` [SN 11], the Ki was 8.2 ± 0.8 µM on hASCT1 and 0.95 ± 0.2 µM on EAAC1.

`O=C(O[C@@H]1CN[C@H](C(=O)O)C1)c1ccc(-c2ccccc2)nc1` [SN 19]: the Ki is 4.37 ± 0.8 µM at hASCT1 and 14.2 ± 0.7 µM at EAAC1.

Turning to `N[C@@H](COC(=O)c1ccc(NC(=O)c2ccccc2)cc1)C(=O)O` [SN 25], the values for the Ki on hASCT1 and on EAAC1 were 11.6 ± 1.8 µM and 12.3 ± 1.9 µM, respectively.

On to `O=C(O)[C@@H]1C[C@H](OCc2ccc(-c3ccccc3)cc2)CN1` [SN 39], for which the Ki was 2.82 ± 0.1 µM on hASCT1 and 1.27 ± 0.2 µM on EAAC1.
